Experimental data taken from patent US20160046618A1, “Cyclopropyl Fused Thiazin-2-Amine Compounds as Beta-Secretase Inhibitors and Methods of Use” (AMGEN INC., priority 2014, published 2016).
Where two headings read alike, the source gives them in different places.

How the values were obtained:
[1] = test system: Aβ40 in conditioned medium of cells stably expressing Amyloid Precursor Protein (APP); test: In vitro BACE-1 cell-based assay (Aβ40 sandwich ELISA); settings: read-out: IC50 IP (μM) BACE1 cell
Method in brief: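 APP-stable cells, pre-cultured 24 h at 37° C in DMEM/10% FBS, were treated 24 h with compound in a 10-point series starting at 100 μM or 10 μM (0.1% DMSO final). Secreted Aβ40 in conditioned medium was measured by pAb40/biotin-6E10 sandwich ELISA with Europium time-resolved fluorescence; IC50 from percent inhibition versus concentration.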

[2] = target: Recombinant Cat D (Homo sapiens (Human), UniProt P07339); test: In vitro enzymatic Cathepsin D (Cat D) FRET assay; assay type: biochemical; settings: read-out: IC50 IP (μM) CatD
Method in brief: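 CHO-expressed enzyme; buffer 0.05 M citrate pH 3.5, 5 mM CHAPS, 10% DMSO final. Start with FRET substrate 20 nM, 1 h incubation, Tris stop (pH to neutral), fluorescence ex 500 nm/em 580 nm.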

[3] = target: human recombinant BACE2 (Homo sapiens (Human), UniProt Q9Y5Z0); test: In vitro enzymatic BACE2 FRET assay; assay type: biochemical; settings: read-out: IC50 IP (μM) BACE2 enzyme
Method in brief: (§1)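 FRET cleavage assay using Ni-NTA-purified recombinant protease and 50 nM quenched peptide substrate, 1 h. Stopped by neutralising with Tris; fluorescence at 488/590 nm.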

[4] = target: human recombinant BACE1 (Homo sapiens (Human), UniProt P56817); test: In vitro enzymatic BACE1 FRET assay; assay type: biochemical; settings: read-out: IC50 IP (μM) BACE1 enzyme
Method in brief: as §1

Sequence of human recombinant BACE2 (Q9Y5Z0 63-518): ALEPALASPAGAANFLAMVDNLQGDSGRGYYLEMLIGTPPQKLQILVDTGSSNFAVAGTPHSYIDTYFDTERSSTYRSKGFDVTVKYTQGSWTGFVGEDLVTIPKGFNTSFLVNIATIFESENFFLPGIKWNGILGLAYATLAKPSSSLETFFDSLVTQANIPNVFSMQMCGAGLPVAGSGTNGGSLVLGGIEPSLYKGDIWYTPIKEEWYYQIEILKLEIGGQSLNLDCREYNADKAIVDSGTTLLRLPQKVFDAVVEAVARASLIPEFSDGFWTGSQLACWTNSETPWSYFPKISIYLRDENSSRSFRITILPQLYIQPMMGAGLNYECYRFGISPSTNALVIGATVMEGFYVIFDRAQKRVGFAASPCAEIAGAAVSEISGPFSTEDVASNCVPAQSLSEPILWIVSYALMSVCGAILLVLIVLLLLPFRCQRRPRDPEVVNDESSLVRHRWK
Sequence of human recombinant BACE1 (P56817 46-501): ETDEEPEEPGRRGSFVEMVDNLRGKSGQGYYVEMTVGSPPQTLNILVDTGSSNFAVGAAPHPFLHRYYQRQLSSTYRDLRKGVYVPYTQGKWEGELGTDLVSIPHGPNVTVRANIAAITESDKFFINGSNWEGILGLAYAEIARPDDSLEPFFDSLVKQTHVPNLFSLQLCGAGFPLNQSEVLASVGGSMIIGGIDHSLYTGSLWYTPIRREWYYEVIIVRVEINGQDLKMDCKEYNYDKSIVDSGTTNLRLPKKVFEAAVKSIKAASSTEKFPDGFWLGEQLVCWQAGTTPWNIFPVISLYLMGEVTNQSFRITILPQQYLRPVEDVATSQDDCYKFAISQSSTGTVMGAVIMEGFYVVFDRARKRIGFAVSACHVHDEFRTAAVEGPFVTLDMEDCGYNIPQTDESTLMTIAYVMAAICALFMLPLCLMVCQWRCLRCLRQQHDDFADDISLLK
Sequence of Recombinant Cat D (P07339 65-412): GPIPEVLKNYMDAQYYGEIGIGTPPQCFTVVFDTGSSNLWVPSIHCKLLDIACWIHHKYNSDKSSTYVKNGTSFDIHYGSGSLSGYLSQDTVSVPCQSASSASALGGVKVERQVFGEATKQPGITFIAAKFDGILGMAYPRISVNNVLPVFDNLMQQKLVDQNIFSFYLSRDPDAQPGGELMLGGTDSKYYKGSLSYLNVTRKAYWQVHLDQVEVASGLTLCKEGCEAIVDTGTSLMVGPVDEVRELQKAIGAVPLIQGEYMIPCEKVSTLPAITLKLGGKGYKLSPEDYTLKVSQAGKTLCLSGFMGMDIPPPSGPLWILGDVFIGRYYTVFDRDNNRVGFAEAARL

| IC50 ([1]; BACE1 cell-based assay) [µM] | IC50 ([2]; Cathepsin D FRET enzyme assay) [µM] | IC50 ([3]; BACE2 FRET enzyme assay) [µM] | IC50 ([4]; BACE1 FRET enzyme assay) [µM] | IC50 [1] [µM] | IC50 [2] [µM] | IC50 [3] [µM] | IC50 [4] [µM] | SMILES |
| --- | --- | --- | --- | --- | --- | --- | --- | --- |
| 0.0501 | 715 | 0.0206 | 0.00763 | – | – | – | – | Cc1cc(OC(F)F)cnc1C(=O)Nc1cc(F)c(F)c([C@@]2(CF)N=C(N)S[C@H]3C[C@H]32)c1 [Example 86, N-(3-((1S,5S,6S)-3-amino-5-(fluoromethyl)-2-thia-4-azabicyclo[4.1.0]hept-3-en-5-yl)-4,5-difluorophenyl)-5-(difluoromethoxy)-3-methyl-2-pyridinecarboxamide] |
| 0.0198 | > 400 | 0.0364 | 0.0228 | – | – | – | – | COc1cnc2c(Nc3cc(F)c(F)c([C@@]4(C)N=C(N)S[C@@]5(CO)C[C@H]54)c3)nccc2c1 [Example 89, ((1S,5S,6S)-3-amino-5-(2,3-difluoro-5-((3-methoxy-1,7-naphthyridin-8-yl)amino)phenyl)-5-methyl-2-thia-4-azabicyclo[4.1.0]hept-3-en-1-yl)methanol] |
| 0.128 | 34.1 | 0.0112 | 0.00682 | – | – | – | – | COC[C@@]12C[C@@H]1[C@@](CF)(c1cc(Nc3nccc4cc(C#N)cnc34)cc(F)c1F)N=C(N)S2 [Example 90, 8-((3-((1R,5S,6R)-3-amino-5-(fluoromethyl)-1-(methoxymethyl)-2-thia-4-azabicyclo[4.1.0]hept-3-en-5-yl)-4,5-difluorophenyl)amino)-1,7-naphthyridine-3-carbonitrile] |
| 0.0256 | 1210 | 0.0111 | 0.00524 | – | – | – | – | COc1cnc2c(Nc3cc(F)c(F)c([C@@]4(C)N=C(N)S[C@@]5(CO)C[C@H]54)c3)ncc(F)c2c1 [Example 91, ((1S,5S,6S)-3-amino-5-(2,3-difluoro-5-((5-fluoro-3-methoxy-1,7-naphthyridin-8-yl)amino)phenyl)-5-methyl-2-thia-4-azabicyclo[4.1.0]hept-3-en-1-yl)methanol] |
| 0.0102 | 414 | 0.00373 | 0.0052 | – | – | – | – | C[C@]1(c2cc(Nc3ncnc4cc(Cl)cnc34)cc(F)c2F)N=C(N)S[C@@]2(CO)C[C@H]21 [Example 92, ((1S,5S,6S)-3-amino-5-(5-((7-chloropyrido[3,2-d]pyrimidin-4-yl)amino)-2,3-difluorophenyl)-5-methyl-2-thia-4-azabicyclo[4.1.0]hept-3-en-1-yl)methanol] |
| 0.0108 | 1380 | 0.0342 | 0.01 | – | – | – | – | COc1cnc2c(Nc3cc(F)c(F)c([C@@]4(C)N=C(N)S[C@@]5(CO)C[C@H]54)c3)nccc2n1 [Example 93, ((1S,5S,6S)-3-Amino-5-(2,3-difluoro-5-((2-methoxypyrido[3,4-b]pyrazin-5-yl)amino)phenyl)-5-methyl-2-thia-4-azabicyclo[4.1.0]hept-3-en-1-yl)methanol] |
| 0.00304 | 559 | < 0.00203 | 0.00053 | – | – | – | – | Cc1cc(C#N)cnc1C(=O)Nc1cc(F)c(F)c([C@@]2(C)N=C(N)S[C@@]3(C(F)F)C[C@@H]23)c1 [Example 94, N-(3-((1S,5S,6S)-3-amino-1-(difluoromethyl)-5-methyl-2-thia-4-azabicyclo[4.1.0]hept-3-en-5-yl)-4,5-difluorophenyl)-5-cyano-3-methylpicolinamide] |
| 0.0174 | 40.4 | 0.0024 | 0.00726 | – | – | – | – | COC[C@@]12C[C@@H]1[C@@](CF)(c1cc(NC(=O)c3ccc(Cl)cn3)cc(F)c1F)N=C(N)S2 [Example 96, N-(3-((1R,5S,6R)-3-amino-5-(fluoromethyl)-1-(methoxymethyl)-2-thia-4-azabicyclo[4.1.0]hept-3-en-5-yl)-4,5-difluorophenyl)-5-chloro-2-pyridinecarboxamide] |
| 0.0312 | 752 | 0.0632 | 0.0118 | – | – | – | – | N#Cc1cnc2c(Nc3ccc(F)c([C@@]4(CF)N=C(N)S[C@@]5(CF)C[C@H]54)c3)ncnc2c1 [Example 97, 4-((3-((1S,5S,6S)-3-amino-1,5-bis(fluoromethyl)-2-thia-4-azabicyclo[4.1.0]hept-3-en-5-yl)-4-fluorophenyl)amino)pyrido[3,2-d]pyrimidine-7-carbonitrile] |
| 0.0056 | 3140 | 0.0032 | 0.00665 | – | – | – | – | C[C@]1(c2cc(NC(=O)c3ccc(Cl)cn3)cnc2F)N=C(N)S[C@@]2(CF)C[C@H]21 [Example 98, N-(5-((1S,5S,6S)-3-amino-1-(fluoromethyl)-5-methyl-2-thia-4-azabicyclo[4.1.0]hept-3-en-5-yl)-6-fluoropyridin-3-yl)-5-chloropicolinamide] |
| 0.0659 | 1130 | 0.00824 | 0.00659 | – | – | – | – | COC(=O)[C@]12C[C@H]1[C@@](C)(c1cc(NC(=O)c3ccc(Cl)cn3)cnc1F)N=C(N)S2 [Example 99, (1S,5S,6S)-methyl 3-amino-5-(5-(5-chloropicolinamido)-2-fluoropyridin-3-yl)-5-methyl-2-thia-4-azabicyclo[4.1.0]hept-3-ene-1-carboxylate] |
| 0.094 | 720 | 0.023 | 0.0197 | – | – | – | – | C[C@]1(c2cc(Nc3ncnc4cc(C#N)cnc34)ccc2F)N=C(N)S[C@@H]2[C@H]1C2(F)F [Example 101, 4-((3-((1R,5S,6R)-3-amino-7,7-difluoro-5-methyl-2-thia-4-azabicyclo[4.1.0]hept-3-en-5-yl)-4-fluorophenyl)amino)pyrido[3,2-d]pyrimidine-7-carbonitrile] |
| 0.058 | 361 | 0.019 | 0.00433 | – | – | – | – | C#CCOc1cnc(C(=O)Nc2ccc(F)c([C@@]3(C)N=C(N)S[C@@H]4[C@H]3C4(F)F)c2)c(C)n1 [Example 102, N-(3-((1R,5S,6R)-3-amino-7,7-difluoro-5-methyl-2-thia-4-azabicyclo[4.1.0]hept-3-en-5-yl)-4-fluorophenyl)-3-methyl-5-(prop-2-yn-1-yloxy)pyrazine-2-carboxamide] |
| – | – | – | – | 0.00235 | 1680 | 0.0361 | 0.000589 | C#CCOc1cnc2c(Nc3cnc(F)c([C@@]4(C)N=C(N)S[C@@]5(CF)C[C@H]54)c3)nccc2n1 [Example 601, N-(5-((1S,5S,6S)-3-amino-1-(fluoromethyl)-5-methyl-2-thia-4-azabicyclo[4.1.0]hept-3-en-5-yl)-6-fluoro-3-pyridinyl)-2-(2-propyn-1-yloxy)pyrido[3,4-b]pyrazin-5-amine] |
| – | – | – | – | 0.00204 | 605 | 0.0371 | 0.000871 | C[C@]1(c2cc(Nc3nccc4nc(OCc5ncco5)cnc34)cnc2F)N=C(N)S[C@@]2(CF)C[C@H]21 [Example 602, N-(5-((1S,5S,6S)-3-amino-1-(fluoromethyl)-5-methyl-2-thia-4-azabicyclo[4.1.0]hept-3-en-5-yl)-6-fluoro-3-pyridinyl)-2-(1,3-oxazol-2-ylmethoxy)pyrido[3,4-b]pyrazin-5-amine] |
| – | – | – | – | 0.0037 | 336 | 0.0132 | 0.0016 | C#CCOc1cnc(C(=O)Nc2cnc(F)c([C@@]3(C)N=C(N)S[C@@]4(CF)C[C@H]43)c2)c(C)n1 [Example 603, N-(5-((1S,5S,6S)-3-amino-1-(fluoromethyl)-5-methyl-2-thia-4-azabicyclo[4.1.0]hept-3-en-5-yl)-6-fluoro-3-pyridinyl)-3-methyl-5-(2-propyn-1-yloxy)-2-pyrazinecarboxamide] |
| – | – | – | – | 0.00933 | 571 | 0.00378 | 0.00624 | C[C@]1(c2cc(Nc3nccc4cc(C#N)cnc34)cnc2F)N=C(N)S[C@@]2(CF)C[C@H]21 [Example 604, 8-((5-((1S,5S,6S)-3-amino-1-(fluoromethyl)-5-methyl-2-thia-4-azabicyclo[4.1.0]hept-3-en-5-yl)-6-fluoro-3-pyridinyl)amino)-1,7-naphthyridine-3-carbonitrile] |
| – | – | – | – | 0.00149 | 1290 | 0.114 | 0.00178 | C[C@]1(c2cc(Nc3ncnc4cc(OCc5ncco5)cnc34)cnc2F)N=C(N)S[C@@]2(CF)C[C@H]21 [Example 605, N-(5-((1S,5S,6S)-3-amino-1-(fluoromethyl)-5-methyl-2-thia-4-azabicyclo[4.1.0]hept-3-en-5-yl)-6-fluoro-3-pyridinyl)-7-(1,3-oxazol-2-ylmethoxy)pyrido[3,2-d]pyrimidin-4-amine] |

| SMILES | IC50 ([1]; BACE1 cell-based assay) [µM] | IC50 ([2]; Cathepsin D FRET enzyme assay) [µM] | IC50 ([3]; BACE2 FRET enzyme assay) [µM] | IC50 ([4]; BACE1 FRET enzyme assay) [µM] | IC50 [1] [µM] | IC50 [2] [µM] | IC50 [3] [µM] | IC50 [4] [µM] |
| --- | --- | --- | --- | --- | --- | --- | --- | --- |
| C[C@]1(c2cc(NC(=O)c3ccc(Cl)cn3)cnc2F)N=C(N)S[C@@]2(CO)C[C@H]21 [Example 100, N-(5-((1S,5S,6S)-3-amino-1-(hydroxymethyl)-5-methyl-2-thia-4-azabicyclo[4.1.0]hept-3-en-5-yl)-6-fluoropyridin-3-yl)-5-chloropicolinamide] | 0.0112 | > 400 | 0.0038 | 0.0225 | – | – | – | – |
